Source: PMC9057277 (RSC Advances, 2020)
pIC50: −log10 of the molar value. Like-named read-outs stand apart in the source and are kept apart here. Values belong to the compound of their own block, whether it stands above or below them.

Tests used:
[1] = Metabolic stability in vivo: blood clearance, blood components, radiometabolites; design: species or system male Wistar rats; settings: for half-life: male, Wistar, rat, arterial blood, iv, 70 MBq, i.v., arterial blood samples; for half-life / Intact compound in blood plasma: rats; for Intact compound in blood plasma: radio-HPLC
log D7.4 by HPLC method = type: physicochemical; settings: HPLC retention on ODP-50 4B column (Shodex Asahipak); pH 7.4, HPLC-based method
[2] = Stability towards liver microsomes of mice; settings: oxidative conditions plus MgCl2 5 mM, alamethicin 50 μg/mL, UDPGA 5 mM
[3] = Ex vivo biodistribution in healthy rats; settings: for Biodistribution BAT: brown adipose tissue; for Biodistribution WAT: white adipose tissue
[4] = target: phosphodiesterase-5 (PDE51A); design: method as in PMID 17383621; settings: ref 54; cited from earlier work
[5] = target: 3-phosphoinositide-dependent kinase 1 (PDK1); settings: cited from earlier work
[6] = target: sarcoplasmic/ER Ca2+ ATPase (SERCA); design: method as in PMID 23875171, PMID 12076251; settings: ref 49 and 55; cited from earlier work
hCA-IX = tested on: hCA-IX; design: method as in PMID 23875171, PMID 16290146; settings: ref 49 and 56; cited from earlier work
protein kinase B (PKB) = target: protein kinase B (PKB); design: method as in PMID 16757698, PMID 14973075; settings: ref 50 and 53; cited from earlier work
CYP3A4 = tested on: CYP3A4; design: method as in PMID 10681375, PMID 22336956; settings: ref 12,51; cited from earlier work
hCA-XII = tested on: hCA-XII; design: method as in PMID 23875171, PMID 16290146; settings: ref 49 and 56; cited from earlier work
recombinant human COX-2 = target: T1, recombinant human COX-2 (Homo sapiens, UniProt P35354); test: COX Fluorescent Inhibitor Screening Assay Kit, COX-2; type: biochemical
T1 construct: purchased Cayman Chemical, Ann Arbor, MI 700100
T1 sequence (P35354 18-604): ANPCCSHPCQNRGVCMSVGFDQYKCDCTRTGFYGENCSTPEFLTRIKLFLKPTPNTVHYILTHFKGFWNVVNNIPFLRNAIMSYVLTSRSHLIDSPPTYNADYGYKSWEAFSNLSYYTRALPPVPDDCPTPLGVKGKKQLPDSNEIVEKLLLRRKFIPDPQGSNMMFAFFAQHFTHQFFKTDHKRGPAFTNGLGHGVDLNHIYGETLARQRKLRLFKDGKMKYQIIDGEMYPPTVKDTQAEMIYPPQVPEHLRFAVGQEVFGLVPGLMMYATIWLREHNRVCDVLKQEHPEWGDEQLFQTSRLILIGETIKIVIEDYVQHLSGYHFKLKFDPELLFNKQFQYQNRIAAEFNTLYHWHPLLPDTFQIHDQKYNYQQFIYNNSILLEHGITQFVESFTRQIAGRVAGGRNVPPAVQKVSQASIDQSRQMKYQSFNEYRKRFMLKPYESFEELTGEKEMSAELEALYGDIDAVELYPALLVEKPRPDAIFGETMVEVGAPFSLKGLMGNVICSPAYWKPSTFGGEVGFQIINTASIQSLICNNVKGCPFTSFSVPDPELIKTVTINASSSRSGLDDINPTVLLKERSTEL

purified ovine COX-1 = target: T2, purified ovine COX-1 (Ovis aries, UniProt P05979); test: COX Fluorescent Inhibitor Screening Assay Kit, COX-1
T2 sequence (P05979 25-600): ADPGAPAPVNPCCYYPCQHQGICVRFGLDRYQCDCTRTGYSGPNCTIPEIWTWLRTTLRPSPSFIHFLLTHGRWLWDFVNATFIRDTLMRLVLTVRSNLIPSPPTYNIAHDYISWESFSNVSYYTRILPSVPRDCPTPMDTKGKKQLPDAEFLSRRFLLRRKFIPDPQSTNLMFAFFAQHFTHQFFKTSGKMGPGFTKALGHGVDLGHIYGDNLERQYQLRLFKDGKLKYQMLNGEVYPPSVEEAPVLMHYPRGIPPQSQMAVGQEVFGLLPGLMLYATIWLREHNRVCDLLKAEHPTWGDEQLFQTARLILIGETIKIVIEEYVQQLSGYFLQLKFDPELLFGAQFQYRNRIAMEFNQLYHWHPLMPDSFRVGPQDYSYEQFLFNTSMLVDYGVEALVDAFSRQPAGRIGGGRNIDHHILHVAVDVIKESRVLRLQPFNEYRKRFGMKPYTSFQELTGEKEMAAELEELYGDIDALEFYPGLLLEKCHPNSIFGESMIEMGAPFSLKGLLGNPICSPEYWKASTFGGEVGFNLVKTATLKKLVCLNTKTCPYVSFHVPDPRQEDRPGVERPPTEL
Description: 7.4.1 COX inhibition assay
The COX inhibition potency against ovine COX-1 and human COX-2 was determined using the
fluorescence-based COX assay ’COX Fluorescent Inhibitor Screening Assay Kit‘ (catalog number
reported by us.7 In brief, as a measure of COX mediated conversion of arachidonic acid to PG H2 in the
presence of different inhibitor concentrations this assay utilizes the peroxidase component of COX and
analyzes the formation of fluorescent resorufin. All compounds were assayed in a concentration range
of 10 nM to 100 μM, and every inhibitor concentration was assayed in duplicate.
as internal control. IC50 values were estimated using a nonlinear logistic regression ﬁtting procedure
(sigmoidal dose−response model) with Prism Software.

COX-2 = tested on: COX-2; design: method as in PMID 21900596; settings: cited from earlier work
COX-1 = tested on: COX-1; design: method as in PMID 21900596; settings: 14C-based COX assay, previously reported by Uddin et al. ref 21; cited from earlier work
[7] = design: method as in PMID 30072617; settings: male baboon, 90 min p.i. ref 18; cited from earlier work
[8] = i.v., 5 min p.i., n = 8, mean ± SD
[9] = i.v., 60 min p.i., n = 8, mean ± SD

- half-life ([1]; read-out: t1/2 distribution (blood clearance of intact compound)): 1 min
- half-life ([1]; read-out: t1/2 elimination (blood clearance of intact compound)): 20.7 min
- Radioactivity distribution in blood components: erythrocytes ([1]; rat blood, 60 min p.i., + TCA): 23%
- Radioactivity distribution in blood components: plasma ([1]; rat blood, 60 min p.i., + TCA): 71%
- Radioactivity distribution in blood components: plasma supernatant ([1]; rat blood, 60 min p.i., + TCA): 35%
- Radioactivity distribution in blood components: plasma pellet (bound to plasma proteins) ([1]; rat blood, 60 min p.i., + TCA precipitation): 29%
- Radioactivity distribution in blood components: erythrocytes ([1]; rat blood, 60 min p.i., - TCA): 21%
- Radioactivity distribution in blood components: plasma ([1]; rat blood, 60 min p.i., - TCA): 67%
- Radioactivity distribution in blood components: plasma pellet ([1]; rat blood, 60 min p.i., - TCA): 1%
- Radioactivity distribution in blood components: plasma supernatant ([1]; rat blood, 60 min p.i., - TCA): 72%
- Intact compound in blood plasma ([1]; 20 min p.i.): 35%
- Intact compound in blood plasma ([1]; 60 min p.i.): 30%
- chromatographic logD (log D7.4 by HPLC method): 2.65
- glucuronidation in murine liver microsomes [2]: not observed
- liver-to-bladder ratio (hepatobiliary vs renal excretion) ([3]; 60 min p.i.): 2.6
- Biodistribution BAT [3, 8]: 2.79 ± 0.85 SUV
- Biodistribution BAT [3, 9]: 1.12 ± 0.22 SUV
- Biodistribution adrenals [3, 8]: 2.95 ± 0.73 SUV
- Biodistribution blood [3, 8]: 0.32 ± 0.02 SUV
- Biodistribution brain [3, 8]: 0.5 ± 0.1 SUV
- Biodistribution femur [3, 8]: 0.6 ± 0.05 SUV
- Biodistribution harderian gland [3, 8]: 2.37 ± 0.19 SUV
- Biodistribution heart [3, 8]: 0.86 ± 0.07 SUV
- Biodistribution intestine [3, 8]: 14.17 ± 1.43 %ID
- Biodistribution kidneys [3, 8]: 2 ± 0.42 SUV
- Biodistribution liver [3, 8]: 3.37 ± 0.63 SUV
- Biodistribution lung [3, 8]: 1.06 ± 0.06 SUV
- Biodistribution muscle [3, 8]: 0.63 ± 0.09 SUV
- Biodistribution pancreas [3, 8]: 1.6 ± 0.16 SUV
- Biodistribution skin & hair [3, 8]: 0.98 ± 0.09 SUV
- Biodistribution spleen [3, 8]: 0.84 ± 0.12 SUV
- Biodistribution stomach [3, 8]: 1.35 ± 0.6 %ID
- Biodistribution testes [3, 8]: 0.47 ± 0.05 SUV
- Biodistribution thymus [3, 8]: 1.09 ± 0.23 SUV
- Biodistribution thyroid gland [3, 8]: 1.01 ± 0.1 SUV
- Biodistribution urine (calc.) [3, 8]: 0.02 ± 1.08 %ID
- Biodistribution adrenals [3, 9]: 0.9 ± 0.13 SUV
- Biodistribution blood [3, 9]: 0.08 ± 0.02 SUV
- Biodistribution brain [3, 9]: 0.09 ± 0.01 SUV
- Biodistribution femur (femur uptake, 18F-defluorination) [3, 9]: 1.0 ± 0.2 SUV
- Biodistribution harderian gland [3, 9]: 1.08 ± 0.18 SUV
- Biodistribution heart [3, 9]: 0.18 ± 0.02 SUV
- Biodistribution intestine [3, 9]: 41.52 ± 3.98 %ID
- Biodistribution kidneys [3, 9]: 0.57 ± 0.14 SUV
- Biodistribution liver [3, 9]: 0.74 ± 0.14 SUV
- Biodistribution lung [3, 9]: 0.25 ± 0.04 SUV
- Biodistribution muscle [3, 9]: 0.23 ± 0.05 SUV
- Biodistribution pancreas [3, 9]: 0.57 ± 0.14 SUV
- Biodistribution skin & hair [3, 9]: 0.32 ± 0.09 SUV
- Biodistribution spleen [3, 9]: 0.28 ± 0.08 SUV
- Biodistribution stomach [3, 9]: 0.94 ± 0.58 %ID
- Biodistribution testes [3, 9]: 0.24 ± 0.06 SUV
- Biodistribution thymus [3, 9]: 0.23 ± 0.04 SUV
- Biodistribution thyroid gland [3, 9]: 0.27 ± 0.06 SUV
- Biodistribution urine (calc.) [3, 9]: 15.85 ± 2.16 %ID
- Biodistribution WAT [3, 8]: 1.73 ± 0.84 SUV
- Biodistribution WAT [3, 9]: 1.81 ± 0.8 SUV
SMILES: Cc1ccc(-c2cc(CC[18F])nn2-c2ccc(S(C)(=O)=O)cc2)cc1 [[^18F]5b]

SMILES: Cc1ccc(-c2cc(C(F)(F)F)nn2-c2ccc(S(N)(=O)=O)cc2)cc1 [Celecoxib]
- pIC50 [4]: 4.80
- pIC50 ([5]; ref 52): 5.46
- pIC50 ([5]; ref 53): 4.32
- pIC50 [6]: 4.46
- pIC50 (hCA-IX): 7.80
- pIC50 (protein kinase B (PKB)): 4.55
- extent of metabolism to the hydroxyl form by CYP3A4 (CYP3A4): < 25%
- pIC50 (hCA-XII): 7.74

- pIC50 (recombinant human COX-2): 6.29
- Selectivity index (recombinant human COX-2; IC50 (COX-1)/IC50 (COX-2)): >196
- pIC50 (purified ovine COX-1): < 4.00
SMILES: Cc1ccc(-c2cc(CF)nn2-c2ccc(S(C)(=O)=O)cc2)cc1 [5a]
- pIC50 (COX-2; 14C-based COX assay, previously reported by Uddin et al. ref 21): 6.22
- Selectivity index (COX-2; IC50 (COX-1)/IC50 (COX-2), from values previously reported by Uddin et al. ref 21): >7
- pIC50 (COX-1): < 5.40

SMILES: [11CH3]c1ccc(-c2cc(C(F)(F)F)nn2-c2ccc(S(N)(=O)=O)cc2)cc1 [[^11C]celecoxib]
- intact radiotracer in blood [7]: 17%
